In BindingDB's records for doi:10.1016/j.bmc.2012.05.002 (Seoul National University, 2012):

Target: T1, Sortase family protein (Staphylococcus aureus, UniProt Q9S446)
T1 sequence (Q9S446 whole entry): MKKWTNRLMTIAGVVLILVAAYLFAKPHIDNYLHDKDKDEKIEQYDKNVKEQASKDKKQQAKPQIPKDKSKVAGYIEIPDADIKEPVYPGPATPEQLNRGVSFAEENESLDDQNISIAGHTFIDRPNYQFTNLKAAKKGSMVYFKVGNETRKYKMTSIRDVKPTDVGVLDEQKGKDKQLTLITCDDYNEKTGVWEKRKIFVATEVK
Assay: Inhibition of Staphylococcus aureus ATCC 6538p recombinant SrtA

**Q.** Which IC50 does the source give for `O=C(O)c1cc[c]([Hg][OH])cc1` here?
**A.** The IC50 was 112 µM.
